The values below come from patent US20050118565A1, “Systems and methods for assessing neuronal degeneration” (priority 2003, published 2005).

The subject of assay [1] is cultured hippocampal samples. Briefly: fEPSP recording on MED probe: neurodegeneration induced by NMDA and AMPA. The assay is classed as cell-based, Sprague-Dawley rats. As to conditions: for synaptic responses, of the initial amplitude: then one hour of NMDA wash-out; for effect of chronic exposure on synaptic responses: chronic exposure of cultured hippocampal samples; for Hill coefficient: electrophysiology dose-response curve; for EC50: electrophysiology, various concentrations of agonist, read-out: EC50 (decrease of synaptic responses, Hill fit of plateau values of I/O curves). On the procedure: Before use, the MED probes (Panasonic, model MED-P530AP, each electrode: […], interpolar distance: 300 μm) were soaked in 70% ethanol for 15 minutes, dried, and then sterilized with UV radiation for 15 minutes. The probe surfaces were treated overnight at room temperature with 0.1% polyethylenimine and 25 mM borate buffer, pH 8.4. The probe surface was then dried and rinsed 3 times with sterile distilled water. Finally, the probes were filled with culture medium and stored in a CO2 incubator until use (for at least one hour). The culture medium was a 2:1 mixture of Basal Medium Eagle Medium (Sigma, Catalog No. B9638) and Earle Balanced Salts Solution (Sigma, Catalog No. E7510), supplemented with the following compounds (in mM): NaCl (20), NaHCO3 (5), CaCl2 (0.2), MgSO4 (1.7), glucose (48), HEPES (26.7); 5% horse serum (GIBCO, Catalog No. 26050) and 10 ml/L penicillin-streptomycin (GIBCO, Catalog No. 10378). The pH of culture medium was then adjusted to 7.2.
All procedures for culture preparation were carried out under a sterilized bench. Eleven day-old Sprague-Dawley rats were first sterilized with 70% ethanol, sacrificed by decapitation following anesthesia and the whole brain removed. The brains were immediately soaked in sterile ice-cold MEM (pH 7.2; GIBCO, Catalog No. 61100), supplemented with HEPES (25 mM), Tris-base (10 mM), glucose (10 mM) and MgCl2 (3 mM). Appropriate portions of the brain were then trimmed by hand and the remaining brain block placed on an ice-cold stage of a vibrating tissue slicer (Leica, model VT1000S). The thickness of the slices was set at 200 μm. The slices were gently taken off from the blade with a pipette. Each slice was trimmed, placed on the center of the MED probe, which was previously coated as mentioned above, and positioned to cover the 8×8 microelectrode array.
After positioning the section on the MED probe, the cutting solution was removed and culture medium added to the slice up to an interface level (approximately […]). Sterile distilled water was added around the probe to increase humidity and prevent over-drying of the culture medium in the MED probe. The slices on the MED probes were then stored in a CO2 incubator at 34° C. The medium was exchanged with half volume every day.
(§1) For baseline electrophysiological recordings in hippocampal samples, the MED probes containing the samples were removed from the incubator and placed in a smaller CO2 incubator at 34° C. and connected to the stimulation/recording component of the probe. The culture medium was replaced with sterile artificial cerebrospinal fluid (ACSF) of the following composition (in mM): NaCl (124), NaHCO3 (26), glucose (10), KCl (3), NaH2PO4 (1.25), CaCl2 (2), MgSO4 (1), and HEPES (10).
(§2) Evoked field potentials at all 64 sites were then recorded simultaneously with the multi-channel recording system (Panasonic, MED64 system) at a 20 kHz sampling rate. One of the planar microelectrodes of the 64 available was used for cathode stimulation. Bipolar constant current pulses (10 to 45 μA, 0.1 msec) were then produced. To collect typical responses in field CA1, one of the electrodes in the Schaffer collateral fibers was selected as a stimulating electrode while another one in stratum radiatum was selected as a recording electrode. Synaptic responses were recorded at eight-step stimulation intensities (10 to 45 μA, 5 μA steps). After each recording session, ACSF was replaced with culture medium and the samples in the probes were returned to the CO2 incubator.
fEPSPs were recorded at 20 s intervals using a paired-pulse stimulation paradigm with an inter-pulse interval of 50 msec. […] Slope and decay time of the responses were remarkably similar to those recorded in acutely prepared slices using the same system (FIG. 2C). […]

Assay [2] has as its system cultured hippocampal samples. Description: PI uptake method, dose-response of excitotoxins. As to conditions: for Hill coefficient (PI uptake method): PI uptake dose-response curve; for EC50: PI uptake, read-out: EC50 from the PI uptake method. The assay is classed as cell-based. On the procedure: The mechanisms underlying the reduction in amplitude of synaptic responses produced by incubation with these two excitotoxins were further studied by applying various concentrations of NMDA and AMPA to tissue samples. As in the control experiments, the plateau values of the respective I/O curves were used for the analysis (FIGS. 4A and 4B). […] For comparison, dose-response curves obtained with the PI uptake method were plotted in the same figures (FIGS. 4A and 4B, open circles and dashed lines).

The test system of assay [3] is neuronal samples chronically exposed to NMDA. Description: Neuroprotectant assay: fEPSP amplitude on MED probe with 10 μM NMDA as excitotoxin. The assay is classed as cell-based, Sprague-Dawley rats. The method, then:
An assay for identifying neuroprotectants first involves testing the stability of the recordings by comparing FEPSP amplitudes measured at the beginning of the experiments with those measured later, e.g., after at least 3, 24, 48, and 72 hours at the same stimulation intensity (FIG. 1C). For data analysis, the amplitude of the maximal (plateau) value of the I/O curve is used to determine stability of the recordings. Typically, it corresponds to responses obtained by stimulation intensities of […] (FIG. 2B).
NMDA was selected as the excitotoxin. Based on the dose-response analysis described above (FIG. 4A), 10 μM NMDA was chosen as the concentration of agonist for use in this neuroprotectant assay. […] The neuronal samples and MED probes were prepared as described above.
After performing control measurements, neuronal samples were incubated in culture medium containing 10 μM NMDA and 1 μM MK-801 for various periods of time. […] The relative amplitude of synaptic responses measured at stimulation intensities corresponding to the plateau of I/O curves after 3 days of incubation was 91±6% of control (n=3).
After performing control measurements, neuronal samples were incubated in culture medium containing 10 μM NMDA and 30 μM memantine for various periods of time. […] However the degree of protection was much smaller than that provided by MK-801, as only 78±5% (n=3) of the initial amplitude was preserved under these conditions. The concentration dependency of memantine protection was studied using 10 μM NMDA and various concentrations of memantine.

The test system of a further assay is neuronal samples. Description: fEPSP recording on MED probe: incubation with NMDA antagonist alone. As to conditions: for amplitudes of responses, of control: n=3. The assay is classed as cell-based, Sprague-Dawley rats. On the procedure: as §1, §2
However, after 1, 2, and 3 days of incubation, the amplitudes of responses were decreased to 83±6%, 79±11%, and 76±10% (n=3) of control, respectively.

A word on the Hill coefficient: it is a measure of the steepness of the concentration-response curve. In the case of `CN[C@H](CC(=O)O)C(=O)O` [NMDA, N-methyl-D-aspartate], the “synaptic responses, of the initial amplitude” value in assay [1] (10 μM NMDA for 40 min.) was 109±4%; in assay [1] (10 μM NMDA for 3 hours) it was 66±5%; in assay [1] (10 μM NMDA for 1 day) it was 52±2%; in assay [1] (10 μM NMDA for 3 days), 18±3%. Also, the “maximal amplitude of synaptic responses, of control values” in assay [1] (10 μM NMDA, three hours of incubation, n=3) stood at 18±4%. The “effect of chronic exposure on synaptic responses” value in assay [1] is “dose-dependent decreases in synaptic responses”. In addition, the Hill coefficient in assay [1] is listed as 1.7±0.2. The EC50 in assay [1] came out at 5.2 ± 0.5 µM; in assay [2], 21.6 ± 3.4 µM. Moreover, the “amplitude of synaptic responses, of control values” in assay [1] (end of incubation with 10 μM NMDA for 40 min., n=3) turned out to be 48±12%; in assay [1] (end of incubation with 10 μM NMDA for 3 hours, n=3) it was 22±7%; in assay [1] (end of incubation with 10 μM NMDA for 1 day, n=3), 13±3%; in assay [1] (end of incubation with 10 μM NMDA for 3 days, n=3), 11±3%. Further, the “Hill coefficient (PI uptake method)” value in assay [2] came to 3.7±1.0.
In the case of `C[C@]12N[C@H](Cc3ccccc31)c1ccccc12` [MK-801], in assay [3] (10 μM NMDA and 1 μM MK-801, 3 hours up to 3 days), the “protection of synaptic transmission against NMDA-mediated neurotoxicity” value was “almost completely protected”. The “relative amplitude of synaptic responses at plateau of I/O curves, of control” value in assay [3] (10 μM NMDA and 1 μM MK-801, 3 days of incubation, n=3) was found to be 91±6%. Moreover, the synaptic responses result in the assay on neuronal samples (1 μM MK-801 alone, 3 hours of incubation) is reported as “not affected”. Also, the “amplitudes of responses, of control” value in the assay on neuronal samples (1 μM MK-801 alone, 1 day of incubation) stood at 83±6%; in the assay on neuronal samples (1 μM MK-801 alone, 2 days of incubation), 79±11%; in the assay on neuronal samples (1 μM MK-801 alone, 3 days of incubation), 76±10%.
Turning to `Cc1onc(O)c1CC(N)C(=O)O` (stereo not drawn) [AMPA, amino-3-hydroxy-5-methyl-4-isoxazolepropionic acid], in assay [1] (1 μM AMPA 3 days, then 24 hours of AMPA removal), the “recovery of synaptic responses after agonist removal” value is recorded as “no recovery was observed”. Further, the “time course of the decrease in synaptic response” value in assay [1] (1 μM AMPA, three hours and subsequent time points) is “continued to decrease at subsequent time points, stabilizing after 1 day”. In addition, in assay [1] (40 min. incubation with 3 μM AMPA, n=3), the “amplitude of synaptic responses, of control values” is 12±5%. In assay [1] (3 days of incubation with 1 μM AMPA, n=3), this compound came in with a synaptic response amplitudes of 46±4%. Also, in assay [1], the “effect of chronic exposure on synaptic responses” value is on record as “dose-dependent decreases in synaptic responses”, the Hill coefficient was 2.6±0.8 and the EC50 turned out to be 0.81 ± 0.1 µM. In assay [2], the “Hill coefficient (PI uptake method)” value is 2.0±0.1 and the EC50 came to 3.87 ± 0.1 µM.
For orientation: IC50 means the midpoint of a concentration-inhibition curve. `CC12CC3CC(C)(C1)CC(N)(C3)C2` [memantine] had an initial amplitude preserved in assay [3] (10 μM NMDA and 30 μM memantine, up to 3 days of incubation, n=3) of 78±5%. In assay [3] (10 μM NMDA and various concentrations of memantine), the “Hill coefficient of protection” value is recorded as 1.1±3. The IC50 in assay [3] (Rattus norvegicus, 10 μM NMDA and various concentrations of memantine, read-out: IC50 of protection (Hill equation)) worked out at 6.9 ± 1.6 µM. The synaptic transmission entry in the assay on neuronal samples (memantine alone, even at 30 μM, long-term incubation) was “did not result in a significant decrease”.
